This passage reports inhibition and GI50 results from ChEMBL document CHEMBL4229347, “Design, synthesis, and biological evaluation of novel ubiquitin-activating enzyme inhibitors” (2018).

Calls of active or inactive are those of the source. The calls are words filed in the database; no cut-off is given here.

Experiment [1] addresses T1, Ubiquitin-like modifier-activating enzyme 1 (Homo sapiens) (UniProt P22314).
T1 sequence (whole entry): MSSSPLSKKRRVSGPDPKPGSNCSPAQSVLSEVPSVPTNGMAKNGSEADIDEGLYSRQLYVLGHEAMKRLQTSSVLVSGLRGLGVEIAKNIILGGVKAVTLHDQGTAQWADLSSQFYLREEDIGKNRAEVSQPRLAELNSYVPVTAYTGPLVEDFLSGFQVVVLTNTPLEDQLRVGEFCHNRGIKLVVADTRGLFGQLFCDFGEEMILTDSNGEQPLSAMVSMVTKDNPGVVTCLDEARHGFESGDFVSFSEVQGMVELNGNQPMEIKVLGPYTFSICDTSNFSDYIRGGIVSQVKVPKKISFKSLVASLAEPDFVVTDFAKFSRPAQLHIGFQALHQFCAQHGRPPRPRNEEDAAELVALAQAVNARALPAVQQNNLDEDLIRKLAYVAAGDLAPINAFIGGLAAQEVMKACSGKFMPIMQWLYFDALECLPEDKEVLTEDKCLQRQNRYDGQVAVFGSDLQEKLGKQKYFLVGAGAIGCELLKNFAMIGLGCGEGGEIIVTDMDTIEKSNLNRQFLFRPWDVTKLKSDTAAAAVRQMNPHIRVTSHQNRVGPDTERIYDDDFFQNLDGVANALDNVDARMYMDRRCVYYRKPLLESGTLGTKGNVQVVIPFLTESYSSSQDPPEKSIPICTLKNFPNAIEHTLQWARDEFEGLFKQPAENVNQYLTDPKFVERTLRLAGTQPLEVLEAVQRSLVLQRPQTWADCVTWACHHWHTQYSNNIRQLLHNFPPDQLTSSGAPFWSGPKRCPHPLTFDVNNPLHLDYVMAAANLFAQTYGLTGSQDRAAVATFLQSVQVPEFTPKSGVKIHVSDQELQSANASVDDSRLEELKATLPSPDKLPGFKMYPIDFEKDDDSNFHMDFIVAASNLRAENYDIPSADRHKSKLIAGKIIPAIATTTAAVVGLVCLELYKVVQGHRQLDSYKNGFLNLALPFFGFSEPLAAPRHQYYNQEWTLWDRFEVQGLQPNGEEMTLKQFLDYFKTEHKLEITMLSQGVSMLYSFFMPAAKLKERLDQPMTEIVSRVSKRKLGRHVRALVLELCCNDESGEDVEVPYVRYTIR
The experiment in a line: Inhibition of recombinant human E1 expressed in Escherichia coli BL21(DE3) assessed as reduction in biotin-labelled ubiquitin-E1 conjugate formation pretreated for 30 mins followed by biotin-labelled ubiquitin addition and measured after 30 mins by Western blot analysis.

In experiment [2] the target is Ubiquitin-conjugating enzyme E2 D2 (Homo sapiens) (UniProt P62837). The experiment in a line: Inhibition of E2 (unknown origin) assessed as reduction in biotin-labelled ubiquitin-E2 conjugate formation pretreated for 30 mins followed by biotin-labelled ubiquitin addition and measured after 60 mins in presence of E1 by Western blot analysis. In general terms: In western blotting, separated proteins are transferred to a membrane and probed.

Experiment [3] concerns the target T1, Ubiquitin-like modifier-activating enzyme 1 (Homo sapiens). Nature of the experiment: Reversible inhibition of recombinant human E1 expressed in Escherichia coli BL21(DE3) assessed as reduction in biotin-labelled ubiquitin-E1 conjugate formation at 100 uM pretreated for 60 mins followed by 2.5 uM biotin-labelled ubiquitin addition for 30 mins and subsequent 5 uM biotin-labelled ubiquitin addition by Western blot analysis.

For experiment [4] the target is unchanged. The experiment in a line: Reversible inhibition of recombinant human E1 expressed in Escherichia coli BL21(DE3) assessed as reduction in biotin-labelled ubiquitin-E1 conjugate formation at 100 uM pretreated for 60 mins followed by 2.5 uM biotin-labelled ubiquitin addition for 30 mins and subsequent 5 uM biotin-labelled ubiquitin addition measured after 30 mins by Western blot analysis.

Experiment [5] shares this target. The experiment in a line: Inhibition of E1 in human MCF7 cells assessed as increase in p53 levels at 100 uM measured after 24 hrs by Western blot analysis. In kind it is cell-based.
The test system of another experiment is MCF7. Nature of the experiment: Growth inhibition of human MCF7 cells after 72 hrs by alamar blue assay. It counts as functional. Conditions: MCF7, 72 h. (Alamar Blue is a resazurin reagent that responds to reducing activity.)
Experiment [6] deals with T1, Ubiquitin-like modifier-activating enzyme 1 (Homo sapiens). Nature of the experiment: Inhibition of recombinant human E1 expressed in Escherichia coli BL21(DE3) assessed as reduction in biotin-labelled ubiquitin-E1 conjugate formation up to 1000 uM pretreated for 30 mins followed by biotin-labelled ubiquitin addition and measured after 30 mins by Western blot analysis.

Experiment [7] addresses Ubiquitin-conjugating enzyme E2 D2 (Homo sapiens) (UniProt P62837). Nature of the experiment: Inhibition of E2 (unknown origin) assessed as reduction in biotin-labelled ubiquitin-E2 conjugate formation at 10 to 1000 uM pretreated for 30 mins followed by biotin-labelled ubiquitin addition and measured after 60 mins in presence of E1 by Western blot analysis.

Sequence of Ubiquitin-conjugating enzyme E2 D2 (Homo sapiens) (P62837 whole entry, looked up): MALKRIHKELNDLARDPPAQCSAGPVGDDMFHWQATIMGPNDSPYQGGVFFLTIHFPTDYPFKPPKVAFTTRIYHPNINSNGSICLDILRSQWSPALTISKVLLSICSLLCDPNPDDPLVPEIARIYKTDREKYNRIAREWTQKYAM

Take `COC(=O)CNC(=O)CCCc1ccc(OCCCNC(=O)c2ccccc2)c(CCCC(C)C)c1`: the inhibition result in experiment [1] and in experiment [2] was “Dose-dependent effect” throughout. Besides, the inhibition result in experiment [3], in experiment [4] and in experiment [5] was “Active” throughout. Besides, the concentration for 50% growth inhibition (GI50) with MCF7 was determined as 63.4 µM.
As for `COC(=O)CNC(=O)CCCc1ccc(OCCCNC(C)=O)c(CCCC(C)C)c1`, the inhibition entry in experiment [6] was “Active”. The inhibition result in experiment [7] is “inactive”.
In the case of `COC(=O)CNC(=O)CCCc1ccc(OCCCN)c(CCCC(C)C)c1`, the inhibition entry in experiment [6] and in experiment [7] was “inactive” in each case.

As a reminder, the GI50 is the concentration at which growth is held to half of that of the control.
